Measurements from ChEMBL document CHEMBL1201862, “PubChem BioAssay data set” (2004).
Active and inactive are the calls of the source.

Experiments:
[1] = target: Beta-2 adrenergic receptor (Homo sapiens, UniProt P07550); assay: beta2AR agonists driving receptor internalization, dose response, cell-based, FAP fluorogen, flow cytometry, cherry pick 1 (AID 588763); format: functional
[2] = inhibitors of intracellular T. cruzi replication, confirmation, NIH3T3 host cells, beta-gal luminescence (AID 2044); format: functional, cell-based;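 also: intracellular parasites grown in NIH/3T3 mouse fibroblasts as host cells; luminescent beta-galactosidase reporter signal from transgenic T. cruzi replicating inside host cells; inhibitors lower the luminescence signal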
[3] = microbe, parasite or virus in culture; format: functional; conditions: Mycobacterium tuberculosis
[4] = cytotoxicity toward NIH3T3 fibroblasts, dose response, counter-screen, cell-based, ATP luminescence, mouse fibroblasts (AID 2010); format: functional;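 also: cells exposed to compound for about 90 hours before reading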
[5] = test system: HEK293; assay: inhibitors of LMP1-driven NF-kB reporter, dose response, cell-based, HEK293, luciferase, cherry-pick (AID 588343); format: functional; conditions: Homo sapiens
[6] = target: Latent membrane protein 1 (Human herpesvirus 4 (strain B95-8), UniProt P03230); assay: TES1-eGFP NF-kB reporter inhibition versus Tet-On dsRED, dose response, selectivity assay for LMP1 NF-kB inhibitor project, imaging, HEK293T, dual-color eGFP/dsRED, cherry-picks (AID 588398); format: functional, cell-based
Latent membrane protein 1, sequence (P03230 whole entry): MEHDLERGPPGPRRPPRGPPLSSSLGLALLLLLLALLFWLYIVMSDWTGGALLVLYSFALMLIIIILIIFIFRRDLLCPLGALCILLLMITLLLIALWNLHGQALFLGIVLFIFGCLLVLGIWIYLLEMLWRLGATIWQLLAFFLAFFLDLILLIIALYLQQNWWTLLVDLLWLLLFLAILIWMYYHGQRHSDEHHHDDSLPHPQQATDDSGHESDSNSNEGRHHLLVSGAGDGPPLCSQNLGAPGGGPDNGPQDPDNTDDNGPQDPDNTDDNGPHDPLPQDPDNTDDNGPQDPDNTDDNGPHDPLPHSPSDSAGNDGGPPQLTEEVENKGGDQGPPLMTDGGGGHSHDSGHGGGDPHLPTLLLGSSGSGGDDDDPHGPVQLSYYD

[7] = test system: INS1; assay: beta cell apoptosis inhibitors, cytokine rescue, dose response, luminescence, retest (AID 449756); format: functional, cell-based; conditions: Rattus norvegicus;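 also: cell death triggered by IL-1 beta plus TNF-alpha plus IFN-gamma mixture; protective hits raise ATP signal compared with cytokine alone wells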
[8] = target: Mucolipin-3 (Homo sapiens, UniProt Q8TDD5); assay: Dose response cell-based high-throughput screening assay for agonists of the transient receptor potential channel ML3 (TRPML3). [Related pubchem assays: 1526, 1424, 1448 ]; format: functional
Mucolipin-3, sequence (Q8TDD5 whole entry): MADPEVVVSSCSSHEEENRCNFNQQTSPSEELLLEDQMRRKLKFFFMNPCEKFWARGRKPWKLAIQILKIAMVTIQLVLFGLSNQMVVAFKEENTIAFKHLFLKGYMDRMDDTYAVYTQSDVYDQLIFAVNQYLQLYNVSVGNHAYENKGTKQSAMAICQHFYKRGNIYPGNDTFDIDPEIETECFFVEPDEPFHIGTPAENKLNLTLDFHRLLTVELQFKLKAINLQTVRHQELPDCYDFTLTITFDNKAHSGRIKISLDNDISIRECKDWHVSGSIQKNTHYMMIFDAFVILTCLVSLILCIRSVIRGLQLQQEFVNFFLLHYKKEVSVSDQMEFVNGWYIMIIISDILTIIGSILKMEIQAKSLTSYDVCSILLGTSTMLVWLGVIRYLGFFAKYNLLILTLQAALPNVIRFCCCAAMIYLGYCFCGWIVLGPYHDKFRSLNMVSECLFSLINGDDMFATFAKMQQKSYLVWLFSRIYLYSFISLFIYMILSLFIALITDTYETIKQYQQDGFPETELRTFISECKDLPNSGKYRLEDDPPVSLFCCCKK

[9] = target: Ion channel NompC (Danio rerio, UniProt Q7T1G6); assay: Fluorescence counterscreen assay for TRPML3 agonists: dose response cell-based high-throughput screening assay to identify agonists of the transient receptor potential channel N1 (TRPN1). [Related pubchem assays: 1526, 1424, 1448 ]; format: functional
Ion channel NompC, sequence (Q7T1G6 whole entry, the tested form may be a part): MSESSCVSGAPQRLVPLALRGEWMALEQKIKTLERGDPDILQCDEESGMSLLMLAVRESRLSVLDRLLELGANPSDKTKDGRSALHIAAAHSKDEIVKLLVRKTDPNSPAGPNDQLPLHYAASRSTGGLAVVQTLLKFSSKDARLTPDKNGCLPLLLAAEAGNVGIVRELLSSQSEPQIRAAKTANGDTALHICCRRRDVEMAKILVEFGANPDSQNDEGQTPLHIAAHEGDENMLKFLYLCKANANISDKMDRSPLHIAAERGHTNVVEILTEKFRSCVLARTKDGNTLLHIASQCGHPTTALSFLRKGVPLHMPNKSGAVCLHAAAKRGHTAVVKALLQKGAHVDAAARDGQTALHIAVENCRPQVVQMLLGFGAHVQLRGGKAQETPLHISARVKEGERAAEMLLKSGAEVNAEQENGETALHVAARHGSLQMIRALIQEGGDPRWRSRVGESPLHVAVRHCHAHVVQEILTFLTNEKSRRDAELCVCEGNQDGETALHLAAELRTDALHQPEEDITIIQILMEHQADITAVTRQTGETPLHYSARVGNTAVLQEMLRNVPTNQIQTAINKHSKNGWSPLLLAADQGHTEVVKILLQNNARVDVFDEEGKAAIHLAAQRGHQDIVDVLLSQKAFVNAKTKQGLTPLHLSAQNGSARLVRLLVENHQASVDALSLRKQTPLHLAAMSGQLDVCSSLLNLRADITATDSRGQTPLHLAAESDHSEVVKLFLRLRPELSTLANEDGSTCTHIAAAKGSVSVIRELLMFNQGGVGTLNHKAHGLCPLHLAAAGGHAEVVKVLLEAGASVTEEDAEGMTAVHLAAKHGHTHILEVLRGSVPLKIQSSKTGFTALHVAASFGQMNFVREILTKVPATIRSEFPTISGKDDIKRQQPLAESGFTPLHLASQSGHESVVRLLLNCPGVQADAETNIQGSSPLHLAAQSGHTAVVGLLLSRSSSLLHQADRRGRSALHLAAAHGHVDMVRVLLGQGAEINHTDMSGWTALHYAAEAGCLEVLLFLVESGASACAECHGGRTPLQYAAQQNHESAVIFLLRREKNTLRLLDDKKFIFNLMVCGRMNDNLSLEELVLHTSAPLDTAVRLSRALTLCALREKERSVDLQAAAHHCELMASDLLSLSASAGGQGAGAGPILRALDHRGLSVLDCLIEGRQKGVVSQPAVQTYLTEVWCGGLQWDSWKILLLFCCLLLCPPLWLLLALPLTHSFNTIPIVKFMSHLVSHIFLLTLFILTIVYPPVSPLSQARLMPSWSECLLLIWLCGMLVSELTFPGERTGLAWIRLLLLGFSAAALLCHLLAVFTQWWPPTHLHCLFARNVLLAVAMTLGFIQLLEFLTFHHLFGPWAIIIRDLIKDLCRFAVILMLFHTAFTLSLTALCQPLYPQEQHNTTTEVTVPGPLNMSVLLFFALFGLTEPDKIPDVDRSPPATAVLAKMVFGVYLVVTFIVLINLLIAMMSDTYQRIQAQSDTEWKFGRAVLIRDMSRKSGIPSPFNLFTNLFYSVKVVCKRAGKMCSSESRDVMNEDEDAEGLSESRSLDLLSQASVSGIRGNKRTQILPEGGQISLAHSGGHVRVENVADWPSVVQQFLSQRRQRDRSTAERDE

[10] = test system: CHO; assay: cytotoxicity in TLR9-MyD88 CHO cells, dose response, cytotoxicity control for TLR9-MyD88 binding inhibitor project, cell-based, luminescence (AID 588339); format: functional, hamster; conditions: Cricetulus griseus;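 also: CHO cells stably coexpressing TLR9 and MyD88 fusions from primary screen; compound exposure lasted 48 hours before viability readout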
[11] = Fluorescence-based cell-based high throughput dose response assay for inhibitors of the interaction of nucleotide-binding oligomerization domain containing 2 (NOD2) and the receptor-interacting serine-threonine kinase 2 (RIPK2).; format: functional, Homo sapiens; conditions: Homo sapiens
[12] = target: Paired box protein Pax-8 (Homo sapiens, UniProt Q06710); assay: inhibitors of PAX8-driven TPO luciferase reporter, dose response, RMG-I cells, cherry-pick (AID 687027); format: functional, cell-based;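 also: luciferase reporter driven by Pax8 target thyroperoxidase promoter measured by SteadyGlo luminescence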
Paired box protein Pax-8, sequence (Q06710 whole entry): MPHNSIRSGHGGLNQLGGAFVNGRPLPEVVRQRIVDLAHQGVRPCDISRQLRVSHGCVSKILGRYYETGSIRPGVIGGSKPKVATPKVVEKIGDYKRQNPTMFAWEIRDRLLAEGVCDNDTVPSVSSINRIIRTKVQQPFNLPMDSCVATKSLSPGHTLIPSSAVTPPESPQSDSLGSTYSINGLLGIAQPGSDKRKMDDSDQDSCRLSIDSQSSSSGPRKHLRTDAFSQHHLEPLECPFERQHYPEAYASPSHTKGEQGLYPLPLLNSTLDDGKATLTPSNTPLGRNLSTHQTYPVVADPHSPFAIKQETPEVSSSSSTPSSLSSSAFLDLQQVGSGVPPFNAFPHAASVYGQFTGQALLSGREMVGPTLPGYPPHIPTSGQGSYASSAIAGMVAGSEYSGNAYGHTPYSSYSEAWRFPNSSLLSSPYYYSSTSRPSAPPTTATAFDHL

Beta-2 adrenergic receptor, sequence (P07550 whole entry): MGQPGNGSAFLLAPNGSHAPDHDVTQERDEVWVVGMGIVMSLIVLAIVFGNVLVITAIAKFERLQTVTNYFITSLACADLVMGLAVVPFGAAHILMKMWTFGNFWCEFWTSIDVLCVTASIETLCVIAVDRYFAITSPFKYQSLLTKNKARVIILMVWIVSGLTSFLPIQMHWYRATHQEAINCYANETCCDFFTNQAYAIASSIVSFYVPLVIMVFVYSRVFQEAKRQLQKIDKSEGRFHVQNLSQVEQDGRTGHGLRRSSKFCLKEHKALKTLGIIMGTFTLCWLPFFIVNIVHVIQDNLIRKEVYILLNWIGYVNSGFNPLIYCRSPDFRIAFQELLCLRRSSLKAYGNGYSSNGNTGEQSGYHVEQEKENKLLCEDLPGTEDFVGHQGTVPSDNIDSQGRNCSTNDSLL

Row | Compound | EC50 [1] | EC50 [2] | CC50 [3] | EC50 [4] | AC50 [5] | AC50 [6] | AC50 [7] | EC50 [8] | EC50 [9] | IC50 [10] | IC50 [11] | AC50 [12]
1 | CN(Cc1cccs1)c1nc(-c2cccnc2)nc2ccccc12 | 1.26 µM (active) |  |  |  |  |  |  |  |  |  |  | 
2 | Clc1ccc(SCc2cc(N3CCOCC3)nc(-c3ccccn3)n2)cc1 |  | 1.51 µM (active) | 19.5 µM (active) | > 60 µM (not active) | 12.1 µM (active) | 10.5 µM (active) | 2.57 µM (active) |  |  |  |  | 
3 | O=c1c(Cl)c(Cl)cnn1Cc1nnc(-c2ccccc2Br)o1 |  | 2.03 µM (active) |  | 2.51 µM (active) |  |  |  | 3.15 µM (active) | 11.3 µM (not active) | 1.81 µM (active) | 7.65 µM (active) | 7.63 µM (active)
